Converted amounts (≈) assume the structure as drawn. Where two headings read alike, the source gives them in different places.
Tests used:
[1] = Solubility in buffer systems A-G; type: physicochemical; conditions: thermodynamic from solid
Method: A magnetic stirring bar was added to the mixtures. […] If the compound was dissolved, the result was reported (twice the weighed amount of compound/ml). If the compound was not dissolved, 0.5 ml of extra solvent was added to the suspension. […] If the compound was dissolved, the result was reported (weighed amount of compound/ml). If the compound was not dissolved, 1 ml of extra solvent is pipetted into the suspension. The mixtures were shaken (Edmund Buhler SM25 175 SPM) at ambient temperature overnight and inspected afterwards. If the compound was dissolved, the result was reported (half the weighed amount of compound/ml). If the compound was not dissolved, the suspension was filtered over a filter disc. An aliquot of the filtrate was diluted with an appropriate solvent (0.1 N HCl/acetonitrile 1/1) and submitted for concentration measurement (mg/ml) using a generic UPLC method.

[2] = tested on: Microsporum canis (strain B68128); assay: Analogous protocol: comparison compounds (G10, G11) against M. canis in guinea pigs after oral treatment; type: in vivo; parameters: key to semi-quantitative lesion score (mean): lesion score 0–3.5 by severity and size of lesion; conditions: oral 50 mg/kg once daily for 7 days
Method: (§1) The animals used in the tests described below were female Guinea pigs (Duncan-Hartley, Charles River, 200 g). These animals were kept in groups of 2 or 3 in cages of 56×33×20 cm^3. Food pellets (Carfil Quality) and water were available ad libitum in addition to a small daily amount of hay. Standard husbandry conditions were adopted: room temperature: 22° C., humidity level: 60% and a day-night cycle of 12 h.
(§2) For the preparation of inoculums, Microsporum canis (strain B68128) was grown on Sabouraud Dextrose Agar (SDA) plates for at least one week (7-10 days) before infection (27° C.). On the day of infection, spores were harvested by adding 4-5 ml sterile water on the plate and suspending the infectious material with a bend Pasteur pipette. From the recollected fluid, 10 μl was added to a KOVA counting chamber for determination of the number of spores in 1 square (average of several squares). If needed, additional dilutions (10× or 100×) were prepared. The average number of spores in one square×dilution×90.000=cfu/ml. An inoculum of 1×10^7 cfu/ml was prepared in a honey-water mixture (50%-50%).
(§3) In the tests described below, semi-quantitative lesion scores were given based on different clinical parameters. Scores between 0 and 3.5 were assigned based on the severity and size of the lesion. The criteria are listed in detail in Table 6.
For the sake of comparison, 2 compounds not having the 1,1-difluoroethyl moiety in the R^5 or R^6 position, were tested in an analogous protocol:
(§4) The dorsum of the guinea pigs was shaved and further depilated for 7 minutes with Veet® creme before scarification with a steel brush. An inoculum of 10^6 cfu in 200 μl (100 μl mQ+100 μl honey) was applied to the wound using a micropipette with disposable tips. The animal was kept immobilized until the inoculum had completely dried.
Vehicle: methocel F4M Premium EP, Tween 80® (polysorbate 80), demineralised water.
Test compounds: prepared at 30 mg/ml, subsequently further diluted until 6 mg/ml.
Oral treatment (gavage 0.40 ml/guinea pig once daily) was started about 2 hours before infection and continued once daily for 7 consecutive days.
Developments of lesions were evaluated following the semi-quantitative lesion scoring system (see Table 6) on days 3, 5, 7, 10, 12, 14, 18 and 21. Reported values in Table 8 are mean values.

[3] = tested on: Scedosporium prolificans IHEM21157; assay: Antifungal activity in vitro (resazurin susceptibility screen), Inf. I; type: cell-based; conditions: Lomentospora prolificans, 37 °C, 48 hours, resa time 17 hours
In short: (§5)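 Compounds were tested in 2- or 4-fold serial dilution up to 64 μM against cryopreserved isolates (10^3 cfu/well) in RPMI-1640 with L-glutamine, 2% glucose and MOPS pH 7.0. Incubation ran 24 h at 37° C for yeasts to a week or more at 27° C for dermatophytes; growth was read by resazurin fluorescence (ex 550/em 590 nm).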

[4] = tested on: Cryptococcus neoformans B66663; assay: Antifungal activity in vitro (resazurin susceptibility screen), Inf. F; type: cell-based; conditions: Cryptococcus neoformans, B66663, Cryptococcus neoformans B66663; 37 °C, 24 hours, resa time 4 hours
In short: as §5

[5] = tested on: Candida parapsilosis B66126; assay: Antifungal activity in vitro (resazurin susceptibility screen), Inf. D; type: cell-based; conditions: Lodderomyces parapsilosis, B66126, Candida parapsilosis B66126; 37 °C, 24 hours, resa time 4 hours
In short: as §5

[6] = tested on: Rhizomucor miehei IHEM13391; assay: Antifungal activity in vitro (resazurin susceptibility screen), Inf. K; type: cell-based; conditions: Rhizomucor miehei, IHEM13391, Rhizomucor miehei IHEM13391; 37 °C, 48 hours, resa time 17 hours
In short: as §5

[7] = tested on: Trichophyton mentagrophytes B70554; assay: Antifungal activity in vitro (resazurin susceptibility screen), Inf. G; type: cell-based; conditions: Trichophyton mentagrophytes, B70554, Trichophyton mentagrophytes B70554; 27 °C, 7 days, resa time 24 hours
In short: as §5

Microsporum canis B68128 = assay: Antifungal activity in vitro (resazurin susceptibility screen), Inf. B; type: cell-based; conditions: Microsporum canis, B68128, Microsporum canis B68128; 27 °C, 9 days, resa time 24 hours
In short: as §5

[8] = tested on: Aspergillus fumigatus B42928; assay: Antifungal activity in vitro (resazurin susceptibility screen), Inf. E; type: cell-based; conditions: Aspergillus fumigatus, B42928, Aspergillus fumigatus B42928; 27 °C, 48 hours, resa time 17 hours
In short: as §5

Rhizopus oryzae IHEM5223 = assay: Antifungal activity in vitro (resazurin susceptibility screen), Inf. J; type: cell-based; conditions: Rhizopus arrhizus, 37 °C, 24 hours, resa time 6 hours
In short: as §5

[9] = tested on: Scedosporium apiospermum IHEM3817; assay: Antifungal activity in vitro (resazurin susceptibility screen), Inf. H; type: cell-based; conditions: Scedosporium apiospermum, IHEM3817, Scedosporium apiospermum IHEM3817; 37 °C, 48 hours, resa time 17 hours
In short: as §5

[10] = tested on: Sporothrix schenkii B62482; assay: Antifungal activity in vitro (resazurin susceptibility screen), Inf. A; type: cell-based; conditions: Sporothrix, B62482, Sporothrix schenkii B62482; 27 °C, 4 days, resa time 24 hours
In short: as §5

[11] = tested on: Microsporum canis (strain B68128); assay: Test D.4.1: activity against M. canis in guinea-pigs after oral treatment for 7 consecutive days; type: in vivo; parameters: key to semi-quantitative lesion score (mean): lesion score 0–3.5 by severity and size of lesion
Method: as §1, §2, §3
as §4, with “3” for “7”, “150” for “200”, “(75 mQ+75” for “(100 μl mQ+100”, “dried. […]” for “dried.”
vehicle: methocel 0.5%, Tween 80® (polysorbate 80), demineralised water reference compound: itraconazole at 6.25 mg/ml test compounds: prepared at 25 mg/ml, subsequently further diluted
Oral treatment (gavage 0.16 ml/100 g once daily) was started about 2 hours before infection and continued once daily for 7 consecutive days. The animals were weighed after 3 days of treatment to adjust for the dose.
Developments of lesions were evaluated following the semi-quantitative lesion scoring system (see Table 6) on days 3, 5, 7, 10, 12, 14, 17 and 20. The results are show in Table 7 (“DPI” means days post infection). Reported values in Table 7 are mean values.

[12] = tested on: Mucor circinelloides IHEM21105; assay: Antifungal activity in vitro (resazurin susceptibility screen), Inf. L; type: cell-based; conditions: 27 °C, 48 hours, resa time 17 hours
In short: as §5

[13] = tested on: Trichophyton rubrum B68183; assay: Antifungal activity in vitro (resazurin susceptibility screen), Inf. C; type: cell-based; conditions: Trichophyton rubrum, B68183, Trichophyton rubrum B68183; 27 °C, 7 days, resa time 24 hours
In short: as §5

[14] = pH 4, aqueous with cosolvent or surfactant or cyclodextrin, buffer pH 4, containing 10% (w/v) of HPBCD, read-out: Solubility, buffer system C
[15] = pH 7.4, aqueous with cosolvent or surfactant or cyclodextrin, buffer pH 7.4, containing 10% (w/v) of HPBCD, read-out: Solubility, buffer system F
[16] = pH 7.4, aqueous with cosolvent or surfactant or cyclodextrin, buffer pH 7.4, containing 20% (w/v) of HPBCD, read-out: Solubility, buffer system G

CCc1ccc(C2=NCc3ccc(Cl)cc3-n3cccc32)cc1 [drawing 29]
solubility ([1]; pH 4, aqueous buffer, buffer pH 4, ambient temperature, read-out: Solubility, buffer system B): < 1 µg/mL
solubility [1, 14]: 48 µg/mL (≈ 150 µM)
solubility ([1]; pH 4, aqueous with cosolvent or surfactant or cyclodextrin, buffer pH 4, containing 20% (w/v) of HPBCD, read-out: Solubility, buffer system D): 1490 µg/mL (≈ 4640 µM)
solubility ([1]; pH 7.4, aqueous buffer, buffer pH 7.4, ambient temperature, read-out: Solubility, buffer system E): < 1 µg/mL
solubility [1, 15]: 35 µg/mL (≈ 109 µM)
solubility [1, 16]: 110 µg/mL (≈ 343 µM)
solubility ([1]; simulated gastric fluid, 0.01 N HCl, ambient temperature, read-out: Solubility, buffer system A): 1880 µg/mL (≈ 5850 µM)

CCc1cccc(C2=NCc3c(Cl)cccc3-n3cccc32)c1 [Compound G10]
activity against M. canis (in words) [2]: partial activity
activity compared with present compounds 14 and 4 (G7 and G4, both at 40 mg/kg) [2]: less active
semi-quantitative lesion score (mean) ([2]; 3 DPI): 0
semi-quantitative lesion score (mean) ([2]; 5 DPI): 0.5
semi-quantitative lesion score (mean) ([2]; 7 DPI): 1
semi-quantitative lesion score (mean) ([2]; 10 DPI): 1
semi-quantitative lesion score (mean) ([2]; 12 DPI): 2
semi-quantitative lesion score (mean) ([2]; 14 DPI): 1
semi-quantitative lesion score (mean) ([2]; 18 DPI): 1
semi-quantitative lesion score (mean) ([2]; 21 DPI): 0.5

CCc1ccc(C2=NCc3c(Cl)cccc3-n3cccc32)cc1 [Compound G11]
activity against M. canis (in words) [2]: partial activity
activity compared with present compounds 14 and 4 (G7 and G4, both at 40 mg/kg) [2]: less active
semi-quantitative lesion score (mean) ([2]; 3 DPI): 0
semi-quantitative lesion score (mean) ([2]; 5 DPI): 0
semi-quantitative lesion score (mean) ([2]; 7 DPI): 0.5
semi-quantitative lesion score (mean) ([2]; 10 DPI): 0.5
semi-quantitative lesion score (mean) ([2]; 12 DPI): 0.5
semi-quantitative lesion score (mean) ([2]; 14 DPI): 1
semi-quantitative lesion score (mean) ([2]; 18 DPI): 0.5
semi-quantitative lesion score (mean) ([2]; 21 DPI): 0.5

CC(F)(F)c1ccc(C2=NCc3ccc(Cl)cc3-n3cccc32)cc1 [drawing 30]
solubility [1, 14]: 1230 µg/mL (≈ 3440 µM)
solubility [1, 15]: 191 µg/mL (≈ 535 µM)
solubility [1, 16]: 603 µg/mL (≈ 1690 µM)
solubility ([1]; phosphate-citrate (McIlvaine) buffer pH 4, pH 4, aqueous buffer, buffer pH 4, ambient temperature, read-out: Solubility, buffer system B): 87 µg/mL (≈ 244 µM)
solubility ([1]; phosphate-citrate (McIlvaine) buffer pH 7.4, pH 7.4, aqueous buffer, buffer pH 7.4, ambient temperature, read-out: Solubility, buffer system E): < 1 µg/mL

CC(F)(F)c1cccc(C2=NCc3c(Cl)cccc3-n3cccc32)c1 [Compound 14, 7-chloro-4-[3-(1,1-difluoroethyl)phenyl]-6H-pyrrolo[1,2-a][1,4]benzodiazepine]
IC50 [3]: 1320 nM
IC50 [4]: 37200 nM
IC50 [5]: 3020 nM
IC50 [6]: 45700 nM
IC50 [7]: 603 nM
IC50 (Microsporum canis B68128): 525 nM
IC50 [8]: 2000 nM
IC50 (Rhizopus oryzae IHEM5223): > 64600 nM
IC50 [9]: 1740 nM
IC50 [10]: 43700 nM
melting point: 106.9 to 109.7 °C
semi-quantitative lesion score (mean) ([11]; oral 10 mg/kg once daily for 7 days, 3 DPI): 0.33
semi-quantitative lesion score (mean) ([11]; oral 10 mg/kg once daily for 7 days, 5 DPI): 1.17
semi-quantitative lesion score (mean) ([11]; oral 10 mg/kg once daily for 7 days, 7 DPI): 2.00
semi-quantitative lesion score (mean) ([11]; oral 10 mg/kg once daily for 7 days, 10 DPI): 2.17
semi-quantitative lesion score (mean) ([11]; oral 10 mg/kg once daily for 7 days, 12 DPI): 2.33
semi-quantitative lesion score (mean) ([11]; oral 10 mg/kg once daily for 7 days, 14 DPI): 2.17
semi-quantitative lesion score (mean) ([11]; oral 10 mg/kg once daily for 7 days, 17 DPI): 1.67
semi-quantitative lesion score (mean) ([11]; oral 10 mg/kg once daily for 7 days, 20 DPI): 1.17
semi-quantitative lesion score (mean) ([11]; oral 20 mg/kg once daily for 7 days, 3 DPI): 0
semi-quantitative lesion score (mean) ([11]; oral 20 mg/kg once daily for 7 days, 5 DPI): 0.33
semi-quantitative lesion score (mean) ([11]; oral 20 mg/kg once daily for 7 days, 7 DPI): 0.83
semi-quantitative lesion score (mean) ([11]; oral 20 mg/kg once daily for 7 days, 10 DPI): 1.67
semi-quantitative lesion score (mean) ([11]; oral 20 mg/kg once daily for 7 days, 12 DPI): 2.00
semi-quantitative lesion score (mean) ([11]; oral 20 mg/kg once daily for 7 days, 14 DPI): 1.67
semi-quantitative lesion score (mean) ([11]; oral 20 mg/kg once daily for 7 days, 17 DPI): 1.50
semi-quantitative lesion score (mean) ([11]; oral 20 mg/kg once daily for 7 days, 20 DPI): 0.67
activity compared with the terbinafine group (G2, 10 mg/kg) ([11]; oral 40 mg/kg once daily for 7 days): comparable to G2
semi-quantitative lesion score (mean) ([11]; oral 40 mg/kg once daily for 7 days, 3 DPI): 0
semi-quantitative lesion score (mean) ([11]; oral 40 mg/kg once daily for 7 days, 5 DPI): 0.17
semi-quantitative lesion score (mean) ([11]; oral 40 mg/kg once daily for 7 days, 7 DPI): 0.67
semi-quantitative lesion score (mean) ([11]; oral 40 mg/kg once daily for 7 days, 10 DPI): 1.17
semi-quantitative lesion score (mean) ([11]; oral 40 mg/kg once daily for 7 days, 12 DPI): 0.83
semi-quantitative lesion score (mean) ([11]; oral 40 mg/kg once daily for 7 days, 14 DPI): 0.50
semi-quantitative lesion score (mean) ([11]; oral 40 mg/kg once daily for 7 days, 17 DPI): 0.17
semi-quantitative lesion score (mean) ([11]; oral 40 mg/kg once daily for 7 days, 20 DPI): 0.17
IC50 [12]: > 64600 nM
IC50 [13]: 372 nM

From patent US9637490B2, “Antifungal 5,6-dihydro-4-[(difluoroethyl)phenyl]-4H-pyrrolo[1,2-α][1,4]benzodiazepine and 4-(difluoroethyl)phenyl-6H-pyrrolo[1,2-α][1,4]benzodiazepine derivatives” (Janssen Pharmaceutica NV, priority 2010, dated 2017)
